Here are results for eleven compounds from patent US20260027244A1, “SILICON-BASED FLUORIDE ACCEPTOR GROUPS FOR RADIOPHARMACEUTICALS” (Technische Universität München, priority 2022, published 2026).

The target in series [1] is T1, human serum albumin (HSA) (Homo sapiens, UniProt P02768). The series is described as follows: HSA binding of reference substances from literature (HPAC calibration). To be noted: logarithmic value of HSA binding values. Here is the method:
HSA binding of the PSMA-addressing ligands by HPAC was determined according to a previously published procedure via HPLC. […] Mobile phase A was a freshly prepared 50 mM aqueous solution of NH4OAc (pH 6.9) and mobile phase B was isopropanol (HPLC grade, VWR). The applied gradient for all experiments was 100% A (0 to 3 min), followed by 80% A (3 to 40 min). […] (12,13). All substances were dissolved in a 1:1 mixture (v/v) of isopropanol and a 50 mM aqueous solution of NH4OAc (pH 6.9) with a final concentration of 0.5 mg/mL. Non-linear regression was established with the OriginPro 2016G software (Northampton, United States).

For series [2], the target named is T1, human serum albumin (HSA). The settings on record: HSA binding values obtained from literature; cited from earlier work.
For another series, the target named is T2, PSMA (Homo sapiens, UniProt Q04609).
T2 construct: host or cells: LNCaP cells
T2 sequence (Q04609 whole entry): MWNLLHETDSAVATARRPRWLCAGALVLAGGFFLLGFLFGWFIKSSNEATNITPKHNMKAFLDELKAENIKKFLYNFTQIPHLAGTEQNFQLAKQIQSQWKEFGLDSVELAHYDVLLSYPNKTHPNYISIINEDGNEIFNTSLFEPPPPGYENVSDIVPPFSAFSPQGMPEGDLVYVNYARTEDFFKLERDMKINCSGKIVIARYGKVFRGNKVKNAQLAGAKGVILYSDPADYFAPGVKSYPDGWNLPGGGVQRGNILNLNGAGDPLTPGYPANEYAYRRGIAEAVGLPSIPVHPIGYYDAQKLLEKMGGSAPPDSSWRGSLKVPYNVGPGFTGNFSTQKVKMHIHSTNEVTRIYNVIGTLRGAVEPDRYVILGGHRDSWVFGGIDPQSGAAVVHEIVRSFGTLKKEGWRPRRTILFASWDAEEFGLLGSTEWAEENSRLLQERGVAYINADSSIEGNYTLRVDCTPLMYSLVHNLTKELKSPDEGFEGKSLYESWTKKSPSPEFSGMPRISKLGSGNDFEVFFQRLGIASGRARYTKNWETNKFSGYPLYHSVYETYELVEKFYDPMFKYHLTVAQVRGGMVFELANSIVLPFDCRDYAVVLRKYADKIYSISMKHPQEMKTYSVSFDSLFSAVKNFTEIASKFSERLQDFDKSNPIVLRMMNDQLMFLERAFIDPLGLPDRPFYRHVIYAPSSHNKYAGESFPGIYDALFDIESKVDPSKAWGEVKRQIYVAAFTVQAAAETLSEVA
The series is described as follows: PSMA affinity (IC50) on LNCaP cells, competition with [125I]I-BA-KuE. Type of series: binding. As for the experimental part: A mixture of trypsin and EDTA (0.05%, 0.02%) in PBS (Biochrom GmbH, Berlin, Germany) was used to harvest cells. Cells were counted with a Neubauer hemocytometer (Paul Marienfeld, Lauda-Königshofen, Germany).
In the case of metal-complexed ligands, the crude reaction mixture was diluted analogously, without further purification. Cells were harvested 24±2 hours prior to the experiment and seeded in 24-well plates (1.5×10^5 cells in 1 mL/well). After removal of the culture medium, the cells were carefully washed with 500 μL of HBSS (1% BSA) and left 15 min on ice for equilibration in 200 μL HBSS (1% BSA). […] For each concentration, the experiment was performed in triplicate. After incubation on ice for 60 min, the experiment was terminated by removal of the medium and consecutive rinsing with 200 μL of HBSS (1% BSA). The media of both steps were combined in one fraction and represent the amount of free radioligand. Afterwards, the cells were lysed with 250 μL of NaOH (1 M in H2O) for at least 15 min. After a washing step with NaOH (250 μL, 1 M in H2O), both fractions, representing the amount of bound ligand, were united. Quantification of all collected fractions was accomplished in a γ-counter. IC50 values were calculated using GraphPad PRISM software (GraphPad Software Inc., La Jolla, United States). The whole PSMA-affinity determination was carried out at least three times per ligand.

A short description of series [3]: n-octanol-water partition coefficient (log D7.4). Type of series: physicochemical. Here is the method: In the development process of alternative SiFA-analogs, the influence of the substitution pattern at the aromatic moiety on lipophilicity is of particular importance. […] Assuming to observe a better differentiation in properties of the various prosthetic groups, investigations were conducted on small model peptides. Corresponding log D7.4-values (n≥8) are depicted in FIG. 3.
Approximately 1 MBq of the [^177Lu]Lu-labeled tracer or 0.5 MBq of the [^18F]F-labeled tracer was dissolved in 1 mL of n-octanol/PBS (v/v=1:1) in a reaction vial (1.5 mL). After vigorous mixing of the suspension for 3 min at rt, the vial was centrifuged at 15000 g for 5 min (Biofuge 15, Heraus Sepatech, Osterode, Germany) and 100 μL aliquots of both layers were measured in a γ-counter. The experiment was repeated (n≥6).

For series [4], the target named is T1, human serum albumin (HSA). The series is described as follows: Human serum albumin (HSA) binding by high performance affinity chromatography (HPAC). Type of series: in vitro ADME. To be noted: radiohybrid SSTR ligands, Table 4. Here is the method: Investigations about the binding strength of the SiFA-MPs to human serum albumin (HSA) were conducted using high performance affinity chromatography (HPAC). The corresponding gold-standards ((4-SiFA)Bz-MPs) display—as expected from published as well as internal data—a quite strong HSA binding. This is associated with a comparably slow and unfavored blood clearance in vivo.

A short description of series [5]: Biodistribution in LNCaP tumor-bearing male CB17-SCID mice. The settings on record: 1 h p.i. It counts as in vivo. From the text:
Data expressed as percentage of the injected dose per gram (% ID/g), mean±standard deviation. Data of [18F]F, ^natGa-rhPSMA-7.3 were previously published by our group. (2)
Mice were used for experiments when tumors had grown to a diameter of 2-6 mm (4-20 weeks after inoculation).
Results are all decay-corrected and given in % injected dose per gram of tissue (% ID/g).

The conditions of series [6]: 1 h p.i.; previously published data; cited from earlier work.

By IC50 is commonly meant the midpoint of a concentration-inhibition curve. For orientation: logD means the decadic logarithm of the distribution of all forms, ionised or not, between an organic phase and buffer at a given pH. Read a low logD as lower lipophilicity.

Read-outs that look alike come from different tables or passages of the source.

T1 sequence (P02768 25-609): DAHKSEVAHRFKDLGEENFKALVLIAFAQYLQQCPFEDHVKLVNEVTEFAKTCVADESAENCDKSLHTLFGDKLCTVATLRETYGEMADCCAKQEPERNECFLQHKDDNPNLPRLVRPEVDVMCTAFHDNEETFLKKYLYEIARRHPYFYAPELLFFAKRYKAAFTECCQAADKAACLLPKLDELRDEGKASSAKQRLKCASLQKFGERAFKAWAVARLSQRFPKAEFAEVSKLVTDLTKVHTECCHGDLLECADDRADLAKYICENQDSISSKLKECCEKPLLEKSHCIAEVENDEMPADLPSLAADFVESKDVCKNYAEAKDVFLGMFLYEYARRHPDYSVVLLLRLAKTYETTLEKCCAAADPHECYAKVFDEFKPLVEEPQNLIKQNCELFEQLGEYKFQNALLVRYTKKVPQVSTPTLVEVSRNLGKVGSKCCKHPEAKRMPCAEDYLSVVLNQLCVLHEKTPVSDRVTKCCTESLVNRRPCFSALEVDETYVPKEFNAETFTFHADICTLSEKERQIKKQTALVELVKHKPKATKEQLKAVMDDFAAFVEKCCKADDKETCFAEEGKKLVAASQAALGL

Turning to `Nc1ccccc1` [Aniline], the “Log K HSA” value in series [1] is given as −0.79. For the same compound, the “lit. HSA [%]” value in series [2] was 14.06%.
With `O=C(O)c1ccccc1` [Benzoic Acid], the “lit. HSA [%]” value in series [2] was 34.27%.
Compound `CC(C)(C)[Si](F)(c1ccc(C(=O)NCCCC[C@H](NC(=O)N[C@@H](CCC(=O)O)C(=O)O)C(=O)O)cc1)C(C)(C)C` [Entry 1] yielded an IC50 at PSMA of 0.327 ± 0.073 µM. The “logD7.4 (n = 6)” value in series [3] (pH 7.4) is −1.95 ± 0.09.
`C[C@@H](O)[C@H](NC(=O)[C@@H]1CSSC[C@H](NC(=O)[C@@H](Cc2ccccc2)NC(=O)CN2CCN(CC(=O)O)CCN(CC(=O)NCCNC(=O)c3cc(C(=O)O)cc([Si](F)(C(C)(C)C)C(C)(C)C)c3)CCN(CC(=O)O)CC2)C(=O)N[C@@H](Cc2ccc(O)cc2)C(=O)N[C@H](Cc2c[nH]c3ccccc23)C(=O)N[C@@H](CCCCN)C(=O)N[C@@H]([C@@H](C)O)C(=O)N1)C(=O)O` [Entry 4, ^natGa-(5-SiFA)Ip-EDA-DOTATATE, metal not drawn]: the “logD7.4 (n = 6)” value in series [3] (18F-labeled compound, SSTR ligands) was −0.67 ± 0.03. Moreover, in series [4], the “HSA binding (HPAC) [%]” value was 97.4%.
For `COc1ccc(Cl)cc1C(=O)NCCc1ccc(S(=O)(=O)NC(=O)NC2CCCCC2)cc1` [Glibenclamide], the “Log K HSA” value in series [1] turned out to be 1.69. For the same compound, the “lit. HSA [%]” value in series [2] is 99.00%.
For the compound `CCCC[C@@H](C(=O)N[C@@H](CC(=O)O)C(=O)N[C@@H](Cc1cccc2ccccc12)C(N)=O)N(C)C(=O)[C@H](Cc1c[nH]c2ccccc12)NC(=O)CNC(=O)[C@H](Cc1ccc(O)cc1)NC(=O)[C@H](C)NC(=O)[C@@H](CCC(=O)O)NC(=O)CN1CCN(CC(=O)O)CCN(CC(=O)O)CCN(CC(=O)O)CC1` [Lu-DOTA-MGS5], the logD in series [3] (pH 7.4) was -2.25.
`CC(C)(C)[Si](F)(c1cccc(C(=O)NCCCC[C@H](NC(=O)N[C@@H](CCC(=O)O)C(=O)O)C(=O)O)c1)C(C)(C)C` [PSMA-2]: the increase in affinity result at PSMA (shift of silyl group from para (PSMA-1) to meta position) is recorded as “more than 20 fold”.
With `CC(C)(C)[Si](F)(c1cc(C(=O)O)cc(C(=O)NCCCC[C@H](NC(=O)N[C@@H](CCC(=O)O)C(=O)O)C(=O)O)c1)C(C)(C)C` [PSMA-3], at PSMA (attaching a carboxylic acid, compared to PSMA-2), the “further improvement of affinity, factor” value was “two”. In series [5], this compound gave an accumulation in intestine of 17.7±1.6 % ID/g, an accumulation in liver of 7.2±4.8 % ID/g, a blood value of 0.55 % ID/g and a bone uptake of 1.16±0.22 % ID/g. Moreover, in series [5], the kidney value was 67.1±13.9 % ID/g.
`Oc1ccccc1` [Phenol]: in series [1], the “Log K HSA” value is reported as −0.59. Moreover, the “lit. HSA [%]” value in series [2] is 20.69%.
In the case of `CCCN(CCC)S(=O)(=O)c1ccc(C(=O)O)cc1` [Probenecid], the “lit. HSA [%]” value in series [2] is on record as 95.00%.
`CC(C)(C)[Si](F)(c1ccc(C(=O)NC[C@@H](NC(=O)CC[C@@H](C(=O)O)N2CCN(CC(=O)O)CCN(CC(=O)O)CCN(CC(=O)O)CC2)C(=O)N[C@H](CCCCC(=O)NCCC(=O)NCCC[C@@H](NC(=O)CC[C@H](NC(=O)N[C@@H](CCC(=O)O)C(=O)O)C(=O)O)C(=O)O)C(=O)O)cc1)C(C)(C)C` [[^18F]F, ^natGa-rhPSMA-7.3, metal not drawn]: in series [6], the blood value was 0.96 % ID/g and the bone uptake is reported as 0.38±0.32 % ID/g.
